Series [1] deals with HepG2 cells. Briefly: Metabolic stability study in HepG2 cells with RP-LC quantitation. The following applies: for metabolic stability (in words) / metabolic conversion to the oxidized form: up to 6 h; for metabolic conversion to the oxidized form: by retention time, 3 to 5, 14 to 15, 4 to UTAS#94. Type of series: in vitro ADME, human. The procedure:
HepG2 cells were cultured in DMEM culture media in an atmosphere of 95% humidified air and 5% CO2 at 37 °C. Cells were passaged twice a week when reaching approximately 75% confluency. Cell monolayers were washed with PBS once before harvested with 0.5 mL EDTA and 0.5 mL trypsin for 3.5 min and counted using a hemocytometer (Paul Marienfeld GmbH, Lauda-Königshofen, Germany). Cells were routinely grown in 25 cm^2 cell culture flasks (2 μm vent cap, Corning, Victoria, Australia) with 2 × 10^6 cells seeded in 5 mL culture media. After thawing from liquid nitrogen storage, cells were passaged for at least 2–3 weeks to reach steady cumulative growth rates before used for any experiments.
To effectively compare the metabolic stability of our novel SCQs to the reference compound idebenone, a cell culture system had to be developed that would replicate the high metabolic conversion of idebenone in the liver observed in vivo [15, 16, 17]. We therefore employed the hepatic cell line HepG2 to expose the test compounds to hepatic-like enzymatic activities. In addition, the test concentration for SCQs and idebenone had to take into consideration two opposing factors. On the one hand the assay would need to contain sufficient test compound to maximize detection accuracy, on the other hand, the concentration needed to be below the levels that might induce toxicity towards the cultured cells. Based on previous data, no significant cell loss was observed when HepG2 cells were treated with most SCQs at a concentration of 200 μM for 24 h, which led us to select the lower concentration of 40 μM as test concentration. […] We therefore selected the lowest cell concentration (2.5 × 10^5 cells in 2 mL culture media) for this assay.
Log phase HepG2 cells were seeded at 2.5 × 10^5 cells well^−1 in tissue culture-treated 6-well plates (Corning, Victoria, Australia) and allowed to adhere overnight. After one day, the culture media was replaced with fresh culture media (2 mL well^−1) containing the test compounds (12 parallel wells per SCQ). After incubation of cells with test compounds for up to 6 hours, the cell culture media containing the residual SCQs was removed from the six-well plates. Then, 1 mL of cell culture media containing each tested compound was collected at different time points (t = 0, 2 h, 4 h, 6 h). Several methods of sample preparation were tested (e.g., dilution with organic solvents followed by evaporation) and the most suited approach was identified. Each sample (1 mL) was mixed 1:1 with ACN, vortexed for 10 s, and then centrifuged at 2000× g for 10 min at 25 °C. 1 mL of each supernatant was diluted 1:1 in purified water and filtered using 0.45 μm filters prior to immediate analysis by RP-LC. The final concentration of tested compounds for RP-LC analysis was ≤10 μM.
The RP-LC method was developed so that ≤10 μM of each SCQ could be quantified with acceptable repeatability (RSD%) and recovery (%). The mobile phase gradient was adjusted to generate a retention time (RT) of all compounds between 3.00–9.05 min (Table S1). The final conditions included a gradient flow of mobile phase B: 25% (same ACN% in the sample) for 2 min, 25–95% for 3 min, 95% for 4 min, 95–25% for 1 min, and 25% for 5 min (total run t = 15 min, including column post-conditioning). The injection volume (2–20 μL) and detection wavelength (210 nm, 230 nm, 254 nm, 480 nm) were then varied to optimize sensitivity, with 20 μL sample injection volume and detection at 210 nm identified as ideal (Figure S3). Supplementary Table S1 summarizes the analytical figures of merit for the RP-LC of all the compounds. […] The limit of quantification (LOQ) of each compound was established as 1 μM. RSD% (n = 3) at all concentrations (1.0 μM, 2.5 μM, 5.0 μM, 7.5 μM, and 10 μM) were between 0.4–7.6%. […] The above values for analytical figures of merit were considered acceptable for determining metabolic stability of the compounds with concentrations ≤10 μM. […]

Series [2] deals with HepG2 cells. Also on record: method as in PMID 30996858. The following applies: ref [11], cited from earlier work; for In vitro Cytoprotection (%): HepG2, 10 μM SCQ, rotenone, cell survival relative to untreated cells (27.9 ± 7.9%), mean ± SD.
On the set-up of series [3]: method as in PMID 19125241. The following applies: single dose of 150 mg; ref [15]; cited from earlier work.
Series [4] has as its system idebenone metabolism in HepG2 cells. Nature of the series: Idebenone metabolism in HepG2 cells with or without 5. The format is in vitro ADME, human. To be noted: HepG2, 6 h. The procedure:
The conversion from the L-phenylalaninol derivative 3 to the L-phenylalanine derivative 5 appeared to reach a plateau at ~10% conversion from t = 2 h and persisted for the entire test period until t = 6 h. […] A concentration series of the unstable reference SCQ idebenone was tested for metabolic stability for 6 h with or without 40 μM 5 (Figure 4). […] Future studies will need to address the type of inhibition and to identify the specific enzyme that is inhibited.
Figure 4 Reduced idebenone metabolism in the presence of the L-phenylalanine derivative 5. Data was expressed as mean ± SEM from three independent experiments, with 4 data points each. Non-linear fits and two-way ANOVA were performed for comparisons between with or without 5 supplemented: *** p < 0.001, * p < 0.033.

Where “and” joins values, the source holds several entries; their conditions need not be identical. Identical values can stand only once.

These results are taken from article PMC7169385, “Metabolic Stability of New Mito-Protective Short-Chain Naphthoquinones” (Pharmaceuticals, 2020).

Take `COC1=C(OC)C(=O)C(CCCCCCCCCCO)=C(C)C1=O` [Idebenone, reference compound]: the “remaining at t = 6 h” value in series [1] (HepG2 2.5 × 10^5 cells per well, 40 μM, 6 h, normalized to t = 0) is listed as ~ 27.3%. In addition, in series [1] (HepG2, 40 μM, 2 h, three cell densities (2.5 × 10^5 to 1.0 × 10^6 cells in 2 mL)), the “metabolized drug after 2 h” value was ~ 50%. Further, the “metabolized drug after 4 h” value in series [1] (HepG2, 40 μM, 4 h, three cell densities (2.5 × 10^5 to 1.0 × 10^6 cells in 2 mL)) is reported as roughly 76%. The “In vitro Cytoprotection (%)” value in series [2] is reported as 66.2 ± 12.0%. Also, the t1/2 in vivo in series [3] is 3 h and ~ 3 h.

As to `CC1=C(CCCC(=O)NCCc2ccc(O)cc2)C(=O)c2ccccc2C1=O` [Compound 7], the “metabolic stability (in words)” value in series [1] (HepG2, 40 μM) is given as “less stable”. Also, in series [2], the “In vitro Cytoprotection (%)” value is reported as 91.7 ± 15.6%.

For the compound `CC1=C(SCCC(=O)O)C(=O)c2ccccc2C1=O` [Compound 16], the “metabolic stability (in words)” value in series [1] (HepG2, 40 μM) is “significantly reduced metabolic stability”.

Regarding `CC1=C(CCCC(=O)N[C@H](CO)Cc2ccccc2)C(=O)c2ccccc2C1=O` [Compound 3], the “metabolic stability (in words)” value in series [1] (HepG2, 40 μM) was “much less stable than its unnatural D-enantiomer 4”. Moreover, in series [2], the “In vitro Cytoprotection (%)” value is listed as 93.1 ± 13.7%.

Take `COc1ccc(CCNC(=O)CCCC2=C(C)C(=O)c3ccccc3C2=O)cc1OC` [Compound 11]: the “In vitro Cytoprotection (%)” value in series [2] is 95.9 ± 19.4%.

On to `CC1=C(CCCC(=O)N[C@@H](Cc2ccccc2)C(=O)O)C(=O)c2ccccc2C1=O` [Compound 5], for which the “metabolic stability (in words)” value in series [1] (HepG2, 40 μM) was “without a significant metabolic conversion”. For the same compound, the “stability of 5 in combination with idebenone” value in series [4] (40 μM 5, all concentrations of idebenone) is on record as “stable”. In series [4] (40 μM 5, from 20 μM idebenone onward), the “effect on idebenone metabolism” value is recorded as “significant reduction of idebenone metabolism”. Further, the “In vitro Cytoprotection (%)” value in series [2] is on record as 100.3 ± 17.3%.

Consider `CC1=C(CCCC(=O)N2CCCC2C(=O)O)C(=O)c2ccccc2C1=O` (stereo not drawn) [Compound 15], for which, in series [2], the “In vitro Cytoprotection (%)” value was 92.7 ± 7.6%.

Take `CC1=C(CCCCC(=O)NCCc2ccc(O)cc2)C(=O)c2ccccc2C1=O` [Compound 8]: the “metabolic stability (in words)” value in series [1] (HepG2, 40 μM) is given as “increased metabolic stability”. The “In vitro Cytoprotection (%)” value in series [2] is given as 91.8 ± 9.8%.

Take `CC1=C(CCCC(=O)N[C@H](Cc2ccccc2)C(=O)O)C(=O)c2ccccc2C1=O` [UTAS#94]: the “cytoprotection (in words)” value in series [2] (selection for the current study) is “not cytoprotective enough”.

Turning to `CC1=C(CCCC(=O)N[C@H](CO)c2ccccc2)C(=O)c2ccccc2C1=O` [Compound 1], the “metabolic stability (in words)” value in series [1] (HepG2, 40 μM) is listed as “without a significant metabolic conversion”. For the same compound, the “In vitro Cytoprotection (%)” value in series [2] is reported as 83.8 ± 19.9%.

Regarding `CC1=C(CCCC(=O)N[C@@H](CC(C)C)C(=O)O)C(=O)c2ccccc2C1=O` [Compound 10], the “metabolic stability (in words)” value in series [1] (HepG2, 40 μM) is on record as “without a significant metabolic conversion”. Moreover, the “In vitro Cytoprotection (%)” value in series [2] was 98.7 ± 10.9%.

Turning to `CC1=C(CCCC(=O)N2CCCC2CO)C(=O)c2ccccc2C1=O` (stereo not drawn) [Compound 14], the “metabolic conversion to the oxidized form” value in series [1] (HepG2, 40 μM) was “not detected at all”. In addition, the “In vitro Cytoprotection (%)” value in series [2] was 100.7 ± 28.4%.

For `CC1=C(CCCC(=O)N[C@@H](CO)Cc2ccccc2)C(=O)c2ccccc2C1=O` [Compound 4], in series [1] (HepG2, 40 μM), the “metabolic stability (in words)” value was “without a significant metabolic conversion” and the “metabolic conversion to the oxidized form” value is recorded as “no conversion was detected”. Moreover, the “In vitro Cytoprotection (%)” value in series [2] is 80.0 ± 21.1%.

In the case of `CC1=C(CCCC(=O)N[C@@H](CO)c2ccccc2)C(=O)c2ccccc2C1=O` [Compound 2], the “metabolic stability (in words)” value in series [1] (HepG2, 40 μM) is given as “without a significant metabolic conversion”. Moreover, the “In vitro Cytoprotection (%)” value in series [2] was 87.6 ± 19.7%.

`COC(=O)[C@@H](NC(=O)CCCC1=C(C)C(=O)c2ccccc2C1=O)c1ccccc1` [Compound 13]: the “In vitro Cytoprotection (%)” value in series [2] is 86.1 ± 5.0%.

Regarding `CCCCNC(=O)CCCC1=C(C)C(=O)c2ccccc2C1=O` [Compound 12], the “In vitro Cytoprotection (%)” value in series [2] is given as 82.0 ± 7.1%.

Regarding `CC1=C(CCCCCC(=O)NCCc2ccc(O)cc2)C(=O)c2ccccc2C1=O` [Compound 9], in series [1] (HepG2, 40 μM), the “metabolic stability (in words)” value is given as “increased metabolic stability”. The “In vitro Cytoprotection (%)” value in series [2] is 85.2 ± 9.5%.

Turning to `CC1=C(CCCCC(=O)N[C@@H](Cc2ccccc2)C(=O)O)C(=O)c2ccccc2C1=O` [Compound 6], the “metabolic stability (in words)” value in series [1] (HepG2, 40 μM) is “without a significant metabolic conversion”. Further, the “In vitro Cytoprotection (%)” value in series [2] was 90.7 ± 15.6%.
